Source: patent US20230203081A1, “LINCOSAMIDE ANTIBIOTICS AND USES THEREOF” (President and Fellows of Harvard College, priority 2020, published 2023)
In brackets after ≈: the same amount, converted by molar mass.

System: broad panel of different clinical isolates
Experiment: microbe, parasite or virus in culture
Format: cell-based
Outline: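 Inoculum for broth microdilution was 5×10^5 CFU/mL final, prepared from overnight 35° C blood-agar subcultures (separate handling for streptococcal and anaerobic strains); MICs read by CLSI broth microdilution or agar dilution.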

What does the source list for `CCC[C@@H]1C[C@@H](C(=O)N[C@@H]([C@H]2O[C@H](SC)[C@H](O)[C@@H](O)[C@H]2O)[C@H](C)Cl)N(C)C1` [Clindamycin, clindamycin, reference compound]?
MIC (Acinetobacter baumannii, A. baumannii HAV#651, Clinical): 128 µg/mL (≈ 301 µM); MIC (Acinetobacter baumannii, A. baumannii HAV#652 Clinical): 128 µg/mL (≈ 301 µM); MIC (Acinetobacter baumannii, A. baumannii HAV#653, Clinical): 64 µg/mL (≈ 151 µM); MIC (Acinetobacter baumannii, A. baumannii HAV#654, Clinical): 64 µg/mL (≈ 151 µM); MIC (Acinetobacter baumannii, A. baumannii HAV#655, Clinical): 128 µg/mL (≈ 301 µM); MIC (Acinetobacter baumannii, A. baumannii HAV#656, Clinical): 128 µg/mL (≈ 301 µM); MIC (Acinetobacter baumannii, A. baumannii HAV#657, Clinical): 128 µg/mL (≈ 301 µM); MIC (Acinetobacter baumannii, A. baumannii HAV#658, Clinical): 64 µg/mL (≈ 151 µM); MIC (Acinetobacter baumannii, A. baumannii HAV#659, Clinical): 128 µg/mL (≈ 301 µM); MIC (Acinetobacter baumannii, A. baumannii HAV#660, Clinical): > 128 µg/mL; MIC (Acinetobacter baumannii, A. baumannii HAV#661, Clinical): 64 µg/mL (≈ 151 µM); MIC (Acinetobacter baumannii, A. baumannii HAV#662, Clinical): 64 µg/mL (≈ 151 µM); MIC (Acinetobacter baumannii, A. baumannii HAV#663, Clinical): 32 µg/mL (≈ 75.3 µM); MIC (Acinetobacter baumannii, A. baumannii HAV#664, Carbapenem R): 128 µg/mL (≈ 301 µM); MIC (Enterococcus faecalis, E. faecalis HAV#602, Clincal): 16 µg/mL (≈ 37.6 µM); MIC (Enterococcus faecalis, E. faecalis HAV#611, Line R & Vanco R): 128 µg/mL (≈ 301 µM); MIC (Enterococcus faecalis, E. faecalis HAV#612, Line R): 8 µg/mL (≈ 18.8 µM); MIC (Enterococcus faecalis, S. faecalis 5060, Line R & Vanco R): 128 µg/mL (≈ 301 µM); MIC (Enterococcus faecalis, S. faecalis 5074, Line R): 8 µg/mL (≈ 18.8 µM); MIC (Enterococcus faecalis, VRE, E. faecalis HAV#251, Clinical VRE): > 128 µg/mL; MIC (Enterococcus faecium, E. faecium HAV#317, Clinical): 8 µg/mL (≈ 18.8 µM); MIC (Enterococcus faecium, E. faecium HAV#327, Clinical): 8 µg/mL (≈ 18.8 µM); MIC (Enterococcus faecium, E. faecium HAV#604, Clinical): 8 µg/mL (≈ 18.8 µM); MIC (Enterococcus faecium, VRE, E. faecium HAV#318, VanA): > 128 µg/mL; MIC (Enterococcus faecium, VRE, E. faecium HAV#320, Clinical): > 128 µg/mL; MIC (Enterococcus faecium, VRE, E. faecium HAV#326, Clinical): 8 µg/mL (≈ 18.8 µM); MIC (Escherichia coli, E. coli HAV#501, Clinical): > 128 µg/mL; MIC (Escherichia coli, E. coli HAV#503, Clinical): 64 µg/mL (≈ 151 µM); MIC (Escherichia coli, E. coli HAV#511, Clinical): 128 µg/mL (≈ 301 µM); MIC (Escherichia coli, E. coli HAV#512, Clinical): > 128 µg/mL; MIC (Escherichia coli, E. coli HAV#513, Clinical): > 128 µg/mL; MIC (Escherichia coli, E. coli HAV#514, Clinical): 128 µg/mL (≈ 301 µM); MIC (Escherichia coli, E. coli HAV#516, ESBL-producing): 128 µg/mL (≈ 301 µM); MIC (Haemophilus influenzae, ATCC9007, H. influenzae HAV#376, ATCC-9007): 8 µg/mL (≈ 18.8 µM); MIC (Klebsiella pneumoniae, K. pneumoniae HAV#402, FQ-R): > 128 µg/mL; MIC (Klebsiella pneumoniae, K. pneumoniae HAV#404, Clinical): 128 µg/mL (≈ 301 µM); MIC (Klebsiella pneumoniae, K. pneumoniae HAV#405, Clinical): > 128 µg/mL; MIC (Klebsiella pneumoniae, K. pneumoniae HAV#406, Clinical): > 128 µg/mL; MIC (Klebsiella pneumoniae, K. pneumoniae HAV#407, Clinical): > 128 µg/mL; MIC (Klebsiella pneumoniae, K. pneumoniae HAV#408, Clinical): > 128 µg/mL; MIC (Klebsiella pneumoniae, K. pneumoniae HAV#409, ESBL-producing): > 128 µg/mL; MIC (Neisseria gonorrhoeae, N. gonorrhoeae HAV#701, Clinical): 2 µg/mL (≈ 4.71 µM); MIC (Neisseria gonorrhoeae, N. gonorrhoeae HAV#702, Clinical): 0.5 µg/mL (≈ 1.18 µM); MIC (Staphylococcus aureus, MRSA, S. aureus HAV#220, Line R): > 128 µg/mL; MIC (Staphylococcus aureus, MSSA, S. aureus HAV#219, Line R): > 128 µg/mL; MIC (Staphylococcus aureus, S. aureus HAV#051, mecA, norA, spcl, ermA, aad1, aac6′-aph2″): 0.06 µg/mL (≈ 0.141 µM); MIC (Staphylococcus aureus, S. aureus HAV#052, mecA, norA, fosB, blaZ): 0.06 µg/mL (≈ 0.141 µM); MIC (Staphylococcus aureus, S. aureus HAV#053 mecA, norA, fosB): 0.06 µg/mL (≈ 0.141 µM); MIC (Staphylococcus aureus, S. aureus HAV#211, Clinical): > 64 µg/mL; MIC (Staphylococcus aureus, S. aureus HAV#212, Clinical): 0.125 µg/mL (≈ 0.294 µM)
